Test results: publication PMC12489727, “Malonyl-Caffeoylquinic Acids and Malonyl-Flavonoid-Glucosides from Three Edible Apiaceae Plants Anthriscus Cerefolium, Anthriscus Sylvestris, and Chaerophyllum Bulbosum” (ACS Omega, 2025)

Assays:
[1] = DPPH radical scavenging assay; assay type: biochemical; details: 6 min incubation at room temperature, absorbance at 515 nm, triplicate
Description: A DPPH radical scavenging assay was conducted following a previously published protocol, as detailed in the Supporting Information.
Antioxidant Activity Tests. A DPPH radical scavenging assay was used according to a previously
published protocol.13 Serial dilutions of compounds (prepared in methanol) were incubated with
DPPH solution for 6 min at room temperature. The reduction in absorbance was measured with a
HITACHI U-2000 spectrophotometer (Hitachi Ltd., Tokyo, Japan) at 515 nm. […]

Vero E6 cells = assay: In vitro cytostatic effect, Alamar Blue viability assay, Vero E6; assay type: cell-based, African green monkey; details: then 72 h culture
Description: (§1) The cytostatic effects of the compounds were evaluated in vitro on various cancer cells and noncancerous Vero E6 cells using the Alamar Blue viability assay, as detailed in the Supporting Information.
(§2) The cytostatic effects of MDiCQAs and FMGls were evaluated in vitro using the Alamar Blue viability assay on five human cancer cell lines: colorectal carcinoma (HT-29), glioma (U87), hepatocellular carcinoma (HepG2), promyelocytic leukemia (HL-60), and melanoma (A2058). They were also tested on nontumorous Vero E6 cells, kidney epithelial cells from an African green monkey, to evaluate the selectivity of the compounds. […] The two effective MDiCQAs (4 and 9) share a common structural feature: their central quinic acid core is substituted with caffeoyl moieties at the C-1 and C-5 positions and a malonyl group at the C-3 position. In contrast, the ineffective compound 7 has caffeoyl moieties at the same positions, but its malonyl group is attached to the C-4 position instead of C-3. Similarly, in the other ineffective MDiCQAs (5 and 6), the malonyl unit is also located at the C-4 position, while their caffeoyl groups are positioned at C-3 and C-5. […] The results also indicate a high degree of isomer-specificity in the cytostatic activity of MDiCQAs. […] In particular, the inhibition of Vero E6 cells by the MDiCQAs (4 and 9) can be considered as a strong effect, and that of the FMGl (3) as a weaker one, with IC50 values below 10 μM and around 40 μM, respectively. […]
(§3) Determination of the In Vitro Cytostatic Effects of Compounds. In vitro, the cytostatic effect of the compounds was determined on various human tumor- and non-human primate Vero E6 cells using Alamar Blue end-point viability assay. Cells were cultured in DMEM medium supplemented with 10% FBS, 2 mM L-glutamine, 50 IU/mL penicillin/50 µg/mL streptomycin antibiotic cocktail, 1 mM sodium pyruvate and 1% non-essential amino acid mixture at 37 °C in a humidified atmosphere with 5% CO2. At the confluent state, cells were plated into 96-well tissue culture plates with the initial cell number of 5.0×10^3 cells/well. Cells were treated with the compounds after 24 hours in a serum-free medium containing 1.0% (v/v) DMSO at 0.08 -100 µM concentration. Control cells were treated with serum-free medium or DMSO (c=1.0%, v/v ) containing serum-free medium. After overnight incubation, cells were washed twice with a serum-free medium; then, they were cultured for another 72 hours in the complete culturing medium at 37 °C. Following that, 22.5 µL Alamar Blue (resazurin sodium salt, Merck) solution (0.15 mg/mL in PBS) was added to each well and after 4 hrs of incubation, the fluorescence was measured at λEx = 530/30 and λEM = 610/10 nm using a Synergy H4 multi-mode microplate reader (BioTek). All measurements were performed in quadruplets, and the mean IC50 values and ± SEM were represented.

melanoma (A2058) = assay: In vitro cytostatic effect, Alamar Blue viability assay, A2058; assay type: cell-based, human; details: A2058 cells, overnight treatment 0.08-100 µM, then 72 h culture
Description: as §1, §2, §3

glioma (U87) = assay: In vitro cytostatic effect, Alamar Blue viability assay, U87; assay type: cell-based, human; details: U87 cells, overnight treatment 0.08-100 µM, then 72 h culture
Description: as §1, §2, §3

[2] = system: promyelocytic leukemia (HL-60); assay: In vitro cytostatic effect, Alamar Blue viability assay, HL-60; assay type: cell-based, human; details: HL-60 cells, overnight treatment 0.08-100 µM, then 72 h culture
Description: as §1, §2
as §3, with “All measurements were performed in quadruplets, and the mean IC50 values and ± SEM were represented.” left out

[3] = system: hepatocellular carcinoma (HepG2); assay: In vitro cytostatic effect, Alamar Blue viability assay, HepG2; assay type: cell-based, human; details: HepG2 cells, overnight treatment 0.08-100 µM, then 72 h culture
Description: as §1, §2, §3

[4] = system: colorectal carcinoma (HT-29); assay: In vitro cytostatic effect, Alamar Blue viability assay, HT-29; assay type: cell-based, human; details: HT-29 cells, overnight treatment 0.08-100 µM, then 72 h culture
Description: as §1, §2, §3

[5] = system: human leukemia cells (MOLM-13); parameters: method as in earlier work; details: MOLM-13 cells; previously reported; ref 40 (Slimestad et al., 2022); cited from earlier work
[6] = system: noncancerous rat kidney epithelial cells (NRK); parameters: method as in earlier work; details: previously reported, ref 40 (Slimestad et al., 2022); cited from earlier work
[7] = Chlorocebus sabaeus, Vero C1008, 72 h, overnight treatment 0.08-100 µM
[8] = overnight treatment 0.08-100 µM

| IC50 [1] [µM] | IC50 (melanoma (A2058); Homo sapiens) [µM] | IC50 (glioma (U87); Homo sapiens, U-87 MG) [µM] | IC50 ([2]; Homo sapiens) [µM] | IC50 ([3]; Homo sapiens) [µM] | IC50 ([4]; Homo sapiens) [µM] | Compound | IC50 (Vero E6 cells; [7]) [µM] | IC50 (Vero E6 cells; [8]) [µM] | other results |
| --- | --- | --- | --- | --- | --- | --- | --- | --- | --- |
| 13.6 ± 0.4 | 11.9 ± 2.2 | 48.5 ± 4.6 | > 100 | > 100 | 47.9 ± 2.3 | O=C(O)CC(=O)OC1CC(OC(=O)C=Cc2ccc(O)c(O)c2)(C(=O)O)CC(OC(=O)C=Cc2ccc(O)c(O)c2)C1OC(=O)CC(=O)O (stereo not drawn) [Compound 9, 1,5-Dicaffeoyl-3,4-dimalonylquinic Acid] | < 10 | 9.5 ± 3.1 |  |
| 22.5 ± 0.6 |  |  |  |  |  | O=C(O)CC(=O)OC[C@H]1O[C@@H](Oc2c(-c3ccc(O)c(O)c3)oc3cc(O)cc(O)c3c2=O)[C@H](O)[C@@H](O)[C@@H]1O [Compound 1, quercetin-3-O-(6″-O-malonyl)-β-D-glucoside] |  |  |  |
| 18.4 ± 0.1 |  |  |  |  |  | Cc1c(C)c2c(c(C)c1O)CCC(C)(C(=O)O)O2 (stereo not drawn) [Trolox, reference compound] |  |  |  |
| 7.8 ± 0.4 |  |  |  |  |  | O=C(O)CC(=O)OC[C@H]1O[C@@H](Oc2cc(O)c3c(=O)cc(-c4ccc(O)c(O)c4)oc3c2)[C@H](O)[C@@H](O)[C@@H]1O [Compound 2, luteolin-7-O-(6″-O-malonyl)-β-D-glucoside] |  |  |  |
| 233.9 ± 0.9 |  |  |  |  |  | O=C(O)CC(=O)OC[C@H]1O[C@@H](Oc2c(-c3ccc(O)cc3)oc3cc(O)cc(O)c3c2=O)[C@H](O)[C@@H](O)[C@@H]1O [Compound 3, kaempferol-3-O-(6″-O-malonyl)-β-D-glucoside] |  | 39.8 ± 2 | IC50 (melanoma (A2058)): 21 ± 3 µM; IC50 (glioma (U87)): 86.3 ± 9.4 µM; IC50 [2]: 51.4 ± 6.7 µM; IC50 [3]: 27.5 ± 3.4 µM; IC50 [4]: > 100 µM |
|  |  |  |  |  |  | 1,3-dicaffeoyl-5-malonyl-δ-quinide |  |  | in vitro cytotoxicity [5]: nonselective in vitro cytotoxicity; in vitro cytotoxicity [6]: nonselective in vitro cytotoxicity |
|  | 13.5 ± 1.5 | > 100 | 29.7 ± 4.6 | 25.6 ± 2.3 | > 100 | O=C(O)CC(=O)OC1CC(OC(=O)C=Cc2ccc(O)c(O)c2)(C(=O)O)CC(OC(=O)C=Cc2ccc(O)c(O)c2)C1O (stereo not drawn) [Compound 4, 1,5-Dicaffeoyl-3-malonylquinic Acid] | < 10 | 9.9 ± 1.4 |  |
| 14.8 ± 0.6 | > 100 | > 100 |  | > 100 | > 100 | O=C(O)CC(=O)OC[C@H]1O[C@@H](Oc2cc(O)c3c(=O)cc(-c4ccc(O)c(O)c4)oc3c2)[C@H](OC(=O)CC(=O)O)[C@@H](O)[C@@H]1O [Compound 8, Luteolin-7-O-(2″,6″-di-O-malonyl)-β-D-glucoside] | > 100 |  |  |

| Compound | IC50 [1] [µM] | IC50 (melanoma (A2058); Homo sapiens) [µM] | IC50 (glioma (U87); Homo sapiens, U-87 MG) [µM] | IC50 ([2]; Homo sapiens) [µM] | IC50 ([3]; Homo sapiens) [µM] | IC50 ([4]; Homo sapiens) [µM] | IC50 (Vero E6 cells; [7]) [µM] | IC50 (Vero E6 cells; [8]) [µM] | other results |
| --- | --- | --- | --- | --- | --- | --- | --- | --- | --- |
| COc1cccc2c1C(=O)c1c(O)c3c(c(O)c1C2=O)C[C@@](O)(C(C)=O)C[C@@H]3O[C@H]1C[C@H](N)[C@H](O)[C@H](C)O1 [Daunomycin, reference compound] |  | 0.2 ± 0.01 | 0.6 ± 0.05 | 0.16 ± 0.03 | 0.54 ± 0.15 | 0.9 ± 0.1 |  |  | IC50 (Vero E6 cells; Chlorocebus sabaeus, Vero C1008, overnight treatment 0.08-100 µM): 1.7 ± 0.5 µM |
